Measurements reported in patent US20060235222A1, “Indole-derivative modulators of steroid hormone nuclear receptors” (ELI LILLY AND COMPANY, priority 2003, published 2006).

Key:
human MR = target: T1, human MR (Homo sapiens, UniProt P08235); assay: Mineralocorticoid Receptor Binding Assay (Method 1), [3H]-aldosterone competition; details: 0.5 nM [3H]-aldosterone, human MR expressed in Sf9 cells
T1 construct: The full length human MR gene is cloned from a human kidney or human brain cDNA library; inferred from own knowledge of the pAcHLT vector (N); made in house; host or cells: Sf9 insect cells (baculovirus)
T1 sequence (P08235 1-984): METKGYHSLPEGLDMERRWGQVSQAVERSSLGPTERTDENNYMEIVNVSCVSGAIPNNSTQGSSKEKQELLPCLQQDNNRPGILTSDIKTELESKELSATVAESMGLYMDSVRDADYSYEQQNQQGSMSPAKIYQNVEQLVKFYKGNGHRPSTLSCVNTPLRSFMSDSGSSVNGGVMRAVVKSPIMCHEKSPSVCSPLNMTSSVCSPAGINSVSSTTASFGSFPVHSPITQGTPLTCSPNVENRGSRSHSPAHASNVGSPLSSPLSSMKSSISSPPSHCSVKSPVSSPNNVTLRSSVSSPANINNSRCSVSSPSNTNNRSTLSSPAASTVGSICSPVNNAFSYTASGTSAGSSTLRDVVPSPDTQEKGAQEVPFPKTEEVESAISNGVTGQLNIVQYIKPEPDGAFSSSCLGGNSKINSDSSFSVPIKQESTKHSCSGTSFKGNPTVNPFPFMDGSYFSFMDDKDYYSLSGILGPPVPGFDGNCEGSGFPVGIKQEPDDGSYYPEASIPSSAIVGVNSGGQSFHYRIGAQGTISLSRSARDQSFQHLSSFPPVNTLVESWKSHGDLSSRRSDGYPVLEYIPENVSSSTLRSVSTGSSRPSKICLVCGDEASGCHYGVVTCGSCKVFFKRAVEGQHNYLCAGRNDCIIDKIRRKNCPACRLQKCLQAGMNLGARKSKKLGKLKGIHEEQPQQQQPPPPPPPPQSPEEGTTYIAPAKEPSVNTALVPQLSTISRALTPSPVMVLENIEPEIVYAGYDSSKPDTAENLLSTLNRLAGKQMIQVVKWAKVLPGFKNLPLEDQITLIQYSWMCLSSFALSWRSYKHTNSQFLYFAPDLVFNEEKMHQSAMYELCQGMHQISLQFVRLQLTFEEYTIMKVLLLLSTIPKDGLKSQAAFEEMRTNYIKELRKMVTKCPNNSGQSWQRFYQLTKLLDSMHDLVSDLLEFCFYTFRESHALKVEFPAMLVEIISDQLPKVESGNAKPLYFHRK
Method: Mineralocorticoid Receptor Binding Assay (Method 1):
The full length human MR gene is cloned from a human kidney or human brain cDNA library. […] The PCR reaction is performed in a final volume of 50 μl containing about 1 μl of a 50× stock solution of polymerase; about 1 μl of a 50× stock solution of dNTP; about 5 μl of an appropriate PCR buffer; about 1 μl of each primer; about 5 μl of a H. kidney or H. brain cDNA library; and about 36 μl of water. The reaction is allowed to denature for about 30 seconds at 95 degrees Celsius, anneal for about 30 seconds at 55 degrees Celsius, and extend for about 5 minutes at 72 degrees Celsius, the sequence being repeated for a total of about 35 cycles. […] To extract the cDNA product from the agarose gel, the QIAEX II Gel Extraction protocol (QIAGEN, Inc.) is employed according to the manufacturer's instructions. Following extraction, the MR cDNA is cloned into an appropriate cloning vector (Zero Blunt TOPO PCR Cloning Kit (Invitrogen, Inc.) and a pAcHLT-baculovirus transfer vector (B.D./Pharminogen), then expressed in SF9 insect cells, essentially according to manufacturer's instructions. Sf9 cells are grown at a scale where gram quantity cell pellets are obtained for subsequent use in the MR binding assay. Harvested cell pellets are lysed by repeated freeze-thaw cycles (about 4) in a suitable lysis buffer then centrifuged at about 1×10^3 G (with the supernatant being saved for future assays).
MR binding assays are performed in a final total volume of about 250 μl containing about 20-25 μg of protein and 0.5 nM of [^3H]-aldosterone plus varying concentrations of test compound or vehicle. The assay binding buffer consists of 30 mM sodium molybdate, 30 mM of TRIS-HCl, 5 mM sodium phosphate, 5 mM sodium pyrophosphate, and about 10% glycerol, pH=7.5.
Incubations are carried out at 4 degrees Celsius with shaking for about 16 hours. 200 μl aliquots of each incubation are filtered onto Millipore HA 0.45 micron 96-well filter plates, pre-moistened with cold 30 mM TRIS-HCl. The filter plates are suctioned dry with vacuum and immediately washed 3× with cold 30 mM TRIS-HCl. The plates are then punched out and the amount of receptor-ligand complex is determined by liquid scintillation counting using 4 ml of Ready Protein Plus™ liquid scintillation cocktail.

glucocorticoid receptor = target: T2, glucocorticoid receptor (Homo sapiens, UniProt P04150); assay: Glucocorticoid Receptor Binding Assay (Method 1), [3H]-dexamethasone competition, A549 cell extract; details: 1.86 nM [3H]-dexamethasone, read-out: GR Ki (nM) Method 1
T2 construct: containing 50-200 ug of A549 cell extract and 1.86 nM; host or cells: A549 human lung epithelial cells
T2 sequence (P04150 1-777): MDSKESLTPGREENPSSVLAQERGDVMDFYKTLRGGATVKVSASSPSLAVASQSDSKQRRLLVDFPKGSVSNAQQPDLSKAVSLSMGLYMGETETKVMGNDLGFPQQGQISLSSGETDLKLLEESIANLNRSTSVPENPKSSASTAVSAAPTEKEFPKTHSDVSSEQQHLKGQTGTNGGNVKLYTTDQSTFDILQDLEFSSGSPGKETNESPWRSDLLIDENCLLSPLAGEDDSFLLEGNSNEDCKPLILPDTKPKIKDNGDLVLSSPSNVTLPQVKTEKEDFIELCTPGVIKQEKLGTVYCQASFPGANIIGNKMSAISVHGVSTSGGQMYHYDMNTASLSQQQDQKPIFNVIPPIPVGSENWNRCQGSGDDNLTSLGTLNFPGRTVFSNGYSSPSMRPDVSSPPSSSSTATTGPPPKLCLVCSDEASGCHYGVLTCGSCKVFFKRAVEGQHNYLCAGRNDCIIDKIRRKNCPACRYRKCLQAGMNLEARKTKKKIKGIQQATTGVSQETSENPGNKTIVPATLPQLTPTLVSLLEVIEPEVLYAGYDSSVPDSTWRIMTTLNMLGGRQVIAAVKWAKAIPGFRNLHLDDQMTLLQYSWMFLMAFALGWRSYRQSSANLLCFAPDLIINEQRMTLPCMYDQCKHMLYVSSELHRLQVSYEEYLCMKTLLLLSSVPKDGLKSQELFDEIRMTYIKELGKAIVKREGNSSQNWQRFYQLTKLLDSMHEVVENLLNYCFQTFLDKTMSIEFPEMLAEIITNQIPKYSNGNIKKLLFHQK
Method: Glucocorticoid Receptor Binding Assay (Method 1):
A549 human lung epithelial cells (ATCC) are grown at a scale where gram quantity cell pellets are obtained. Harvested cell pellets are washed twice in cold phosphate buffered saline, centrifuged, and resuspended in cold assay binding buffer. The assay binding buffer consists of 10% glycerol, 50 mM Tris-HCl (pH7.2), 75 mM sodium chloride, 1.5 mM magnesium chloride, 1.5 mM EDTA, and 10 mM sodium molybdate. Cell suspensions were lysed via sonication, centrifuged, and the “extract” supernatant is snap frozen and stored at −80 C until needed.
Incubations are carried out at 4 degrees Celsius for 16 hours. After incubation, 70 ul of 3× dextran-coated charcoal solution is added to each reaction, mixed, and incubated for 8 minutes at RT. 3×-dextran-coated charcoal solution consists of 250 ml assay binding buffer, 3.75 g Norit A charcoal (Sigma), and 1.25 g dextran T-70 (Amersham). Charcoal/unbound radioligand complexes are removed by centrifugation of the plate and 140 ul of supernatant from each well is transferred to another 96 well Optiplate (Packard Instruments). 200 ul of Microscint-20 scinillant (Packard Instruments) is added to each well and amount of receptor bound radioligand is determined using Packard Instruments TopCount instrument.

Row | Compound | Ki (human MR) | Ki (glucocorticoid receptor)
1 | CCc1cccc2c(C(C)(c3ccccc3)c3ccc(OC)cc3)c[nH]c12 (centres unmarked) [Example 25] | < 500 nM | < 500 nM
2 | CCCC(C)(c1ccc(F)cc1)c1c[nH]c2c(C)cccc12 (centres unmarked) [Example 26, 3-[1-(4-Fluoro-phenyl)-1-methyl-butyl]-7-methyl-1H-indole] | < 500 nM | < 500 nM
3 | CCc1cccc2c(C(C)(c3ccc(O)cc3)c3ccc(F)cc3)c[nH]c12 (centres unmarked) [Example 27, 4-[1-(7-Ethyl-1H-indole-3-yl)-1-(4-fluoro-phenyl)-ethyl]-phenol] | < 500 nM | < 1000 nM
4 | COc1ccc(C(C)(c2ccccc2)c2c[nH]c3c(C)cccc23)cc1 (centres unmarked) [Example 28, 3-[1-(4-Methoxy-phenyl)-1-phenyl-ethyl]-7-methyl-1H-indole] | < 500 nM | < 1000 nM
5 | CCC(CC)(c1cc2cc(OC)ccc2o1)c1c[nH]c2c(NS(C)(=O)=O)cccc12 [Example 29, N-{3-[1-Ethyl-1-(5-methoxy-benzofuran-2-yl)-propyl]-1H-indol-7-yl}-methanesulfonamide] | < 500 nM | < 1000 nM
6 | Cc1cccc2c(C3(c4ccc(F)cc4)CCCCC3)c[nH]c12 [Example 32, 3-[1-(4-Fluoro-phenyl)-cyclohexyl]-7-methyl-1H-indole] | < 500 nM | < 10000 nM
7 | CCCC(C)(c1ccccc1)c1c[nH]c2c(C)cccc12 (centres unmarked) [Example 37, 7-Methyl-3-(1-methyl-1-phenyl-butyl)-1H-indole] | < 500 nM | < 500 nM
8 | CCCC(C)(c1cccc(OC)c1)c1c[nH]c2c(N)cccc12 (centres unmarked) [Example 38, 3-[1-(3-Methoxy-phenyl)-1-methyl-butyl]-1H-indol-7-ylamine] | < 500 nM | < 1000 nM
9 | CC(C)(c1ccc(-c2ccccc2)cc1)c1c[nH]c2c(NS(C)(=O)=O)cccc12 [Example 39, N-[3-(1-Biphenyl-4-yl-1-methyl-ethyl)-1H-indol-7-yl]-methanesulfonamide] | < 500 nM | < 1000 nM
10 | Cc1cccc2c(C(C)(c3ccc(F)cc3)C3CC3)c[nH]c12 (centres unmarked) [Example 40, 3-[1-Cyclopropyl-1-(4-fluoro-phenyl)-ethyl]-7-methyl-1H-indole] | < 500 nM | < 500 nM
11 | CC(c1ccccc1)(c1ccccc1)c1cn(CC(=O)O)c2ccccc12 [Example 42, [3-(1,1-Diphenyl-ethyl)-indol-1-yl]-acetic acid] | < 10000 nM | < 10000 nM
12 | CCCC(C)(c1ccc(OC(F)(F)F)cc1)c1c[nH]c2c(NS(C)(=O)=O)cccc12 (centres unmarked) [Example 43] | < 500 nM | < 1000 nM
13 | CCCC(C)(c1ccccc1OC)c1c[nH]c2c(NS(C)(=O)=O)cccc12 (centres unmarked) [Example 44, N-{3-[1-(2-Methoxy-phenyl)-1-methyl-butyl]-1H-indol-7-yl}-methanesulfonamide] | < 500 nM | < 500 nM
14 | CCCC(C)(c1ccc(OC)cc1)c1c[nH]c2c(NS(C)(=O)=O)cccc12 (centres unmarked) [Example 45, N-{3-[1-(4-Methoxy-phenyl)-1-methyl-butyl]-1H-indol-7-yl}-methanesulfonamide] | < 500 nM | < 500 nM
15 | CCCC(C)(c1cccc(OC)c1)c1c[nH]c2c(NS(C)(=O)=O)cccc12 (centres unmarked) [Example 46, N-{3-[1-(3-Methoxy-phenyl)-1-methyl-butyl]-1H-indol-7-yl}-methanesulfonamide] | < 500 nM | < 500 nM

The next lines start with the values.

Row | Ki (human MR) | Ki (glucocorticoid receptor) | Compound
16 | < 500 nM | < 500 nM | COc1ccc(C(C)(c2c[nH]c3c(C)cccc23)C2CC2)cc1 (centres unmarked) [Example 24, 3-[1-Cyclopropyl-1-(4-methoxy-phenyl)-ethyl]-7-methyl-1H-indole]
17 | < 500 nM | < 500 nM | CCC(CC)(c1ccco1)c1c[nH]c2c(NS(C)(=O)=O)cccc12 [Example 30, N-[3-(1-Ethyl-1-furan-2-yl-propyl)-1H-indol-7-yl]-methanesulfonamide]
18 | < 500 nM | < 500 nM | CCC(C)(c1ccc(OC)cc1)c1c[nH]c2c(C)cccc12 (centres unmarked) [Example 31, 3-[1-(4-Methoxy-phenyl)-1-methyl-propyl]-7-methyl-1H-indole]
19 | < 500 nM | < 500 nM | CS(=O)(=O)Nc1cccc2c(C3(c4ccccc4)CCOCC3)c[nH]c12 [Example 33, N-[3-(4-Phenyl-tetrahydro-pyran-4-yl)-1H-indol-7-yl]-methanesulfonamide]
20 | < 500 nM | < 10000 nM | CCCC(C)(c1ccc(OC(F)(F)F)cc1)c1c[nH]c2c(N)cccc12 (centres unmarked) [Example 35]
21 | < 500 nM | < 10000 nM | CC(C)(c1cccc(-c2ccc(F)cc2)c1)c1c[nH]c2c(NS(C)(=O)=O)cccc12 [Example 36, N-{3-[1-(4′-Fluoro-biphenyl-3-yl)-1-methyl-ethyl]-1H-indol-7-yl}-methanesulfonamide]
22 | < 1000 nM | < 10000 nM | Cc1ccc(C(C)(C)c2c[nH]c3c(N)cccc23)cc1 [Example 41, 3-(1-Methyl-1-p-tolyl-ethyl)-1H-indol-7-ylamine]
